Key:
Format in all cases: functional
SK-MEL-5 = assay: Growth inhibition of human SK-MEL-5 cells assessed as cell growth at 10^-8 M after 48 hrs by sulforhodamine B assay; settings: SK-MEL-5, 48 h, read-out: Activity
ACHN [1] = assay: Growth inhibition of human ACHN cells assessed as cell growth at 10^-8 M after 48 hrs by sulforhodamine B assay; settings: read-out: Activity
NCI-H226 [2] = assay: Growth inhibition of human NCI-H226 cells assessed as cell growth at 10^-4 M after 48 hrs by sulforhodamine B assay; settings: NCI-H226, 48 h, read-out: Activity
UACC-257 = assay: Growth inhibition of human UACC257 cells assessed as cell growth at 10^-6 M after 48 hrs by sulforhodamine B assay; settings: UACC-257, 48 h, read-out: Activity
HT-29 = assay: Growth inhibition of human HT-29 cells assessed as cell growth at 10^-6 M after 48 hrs by sulforhodamine B assay; settings: HT-29, 48 h, read-out: Activity
NCI-H522 = assay: Growth inhibition of human NCI-H522 cells assessed as cell growth at 10^-5 M after 48 hrs by sulforhodamine B assay; settings: NCI-H522, 48 h, read-out: Activity
786-0 [3] = assay: Growth inhibition of human 786-0 cells assessed as cell growth at 10^-7 M after 48 hrs by sulforhodamine B assay; settings: 786-0, 48 h, read-out: Activity
PC-3 [4] = assay: Growth inhibition of human PC3 cells assessed as cell growth at 10^-8 M after 48 hrs by sulforhodamine B assay; settings: PC-3, 48 h, read-out: Activity
MOLT-4 = assay: Growth inhibition of human MOLT4 cells assessed as cell growth at 10^-8 M after 48 hrs by sulforhodamine B assay; settings: MOLT-4, 48 h, read-out: Activity
MDA-MB-435 [5] = assay: Growth inhibition of human MDA-MB-435 cells assessed as cell growth at 10^-7 M after 48 hrs by sulforhodamine B assay; settings: MDA-MB-435, 48 h, read-out: Activity
M14 = assay: Growth inhibition of human M14 cells assessed as cell growth at 10^-4 M after 48 hrs by sulforhodamine B assay; settings: M14, 48 h, read-out: Activity
BT-549 = assay: Growth inhibition of human BT549 cells assessed as cell growth at 10^-8 M after 48 hrs by sulforhodamine B assay; settings: BT-549, 48 h, read-out: Activity
SW-620 = assay: Growth inhibition of human SW620 cells assessed as cell growth at 10^-8 M after 48 hrs by sulforhodamine B assay; settings: SW-620, 48 h, read-out: Activity
Malme-3M = assay: Growth inhibition of human MALME-3M cells assessed as cell growth at 10^-8 M after 48 hrs by sulforhodamine B assay; settings: read-out: Activity
CAKI-1 = assay: Growth inhibition of human CAKI-1 cells assessed as cell growth at 10^-5 M after 48 hrs by sulforhodamine B assay; settings: CAKI-1, 48 h, read-out: Activity
HOP-62 [6] = assay: Growth inhibition of human HOP62 cells assessed as cell growth at 10^-5 M after 48 hrs by sulforhodamine B assay; settings: HOP-62, 48 h, read-out: Activity
OVCAR-5 [7] = assay: Growth inhibition of human OVCAR5 cells assessed as cell growth at 10^-5 M after 48 hrs by sulforhodamine B assay; settings: OVCAR-5, 48 h, read-out: Activity
786-0 [8] = assay: Growth inhibition of human 786-0 cells assessed as cell growth at 10^-8 M after 48 hrs by sulforhodamine B assay; settings: 786-0, 48 h, read-out: Activity
LOX IMVI = assay: Growth inhibition of human LOXIMVI cells assessed as cell growth at 10^-4 M after 48 hrs by sulforhodamine B assay; settings: read-out: Activity
RXF 393 = assay: Growth inhibition of human RXF393 cells assessed as cell growth at 10^-8 M after 48 hrs by sulforhodamine B assay; settings: RXF 393, 48 h, read-out: Activity
SF-268 [9] = assay: Growth inhibition of human SF268 cells assessed as cell growth at 10^-4 M after 48 hrs by sulforhodamine B assay; settings: SF-268, 48 h, read-out: Activity
ACHN [10] = assay: Growth inhibition of human ACHN cells assessed as cell growth at 10^-7 M after 48 hrs by sulforhodamine B assay; settings: read-out: Activity
MDA-MB-435 [11] = assay: Growth inhibition of human MDA-MB-435 cells assessed as cell growth at 10^-5 M after 48 hrs by sulforhodamine B assay; settings: MDA-MB-435, 48 h, read-out: Activity
HOP-62 [12] = assay: Growth inhibition of human HOP62 cells assessed as cell growth at 10^-8 M after 48 hrs by sulforhodamine B assay; settings: HOP-62, 48 h, read-out: Activity
MDA-MB-468 = assay: Growth inhibition of human MDA-MB-468 cells assessed as cell growth at 10^-7 M after 48 hrs by sulforhodamine B assay; settings: MDA-MB-468, 48 h, read-out: Activity
SF-268 [13] = assay: Growth inhibition of human SF268 cells assessed as cell growth at 10^-5 M after 48 hrs by sulforhodamine B assay; settings: SF-268, 48 h, read-out: Activity
PC-3 [14] = assay: Growth inhibition of human PC3 cells assessed as cell growth at 10^-7 M after 48 hrs by sulforhodamine B assay; settings: PC-3, 48 h, read-out: Activity
UO-31 = assay: Growth inhibition of human UO31 cells assessed as cell growth at 10^-5 M after 48 hrs by sulforhodamine B assay; settings: UO-31, 48 h, read-out: Activity
[15] = Growth inhibition of human HCC2998 cells assessed as cell growth at 10^-4 M after 48 hrs by sulforhodamine B assay; settings: HCC 2998, 48 h, read-out: Activity
HL-60(TB) [16] = assay: Growth inhibition of human HL-60(TB) cells assessed as cell growth at 10^-5 M after 48 hrs by sulforhodamine B assay; settings: HL-60, 48 h, read-out: Activity
NCI-H322M = assay: Growth inhibition of human NCI-H322M cells assessed as cell growth at 10^-8 M after 48 hrs by sulforhodamine B assay; settings: read-out: Activity
[17] = Growth inhibition of human Hs 578T cells assessed as cell growth at 10^-7 M after 48 hrs by sulforhodamine B assay; settings: read-out: Activity
NCI-H226 [18] = assay: Growth inhibition of human NCI-H226 cells assessed as cell growth at 10^-6 M after 48 hrs by sulforhodamine B assay; settings: NCI-H226, 48 h, read-out: Activity
KM12 [19] = assay: Growth inhibition of human KM12 cells assessed as cell growth at 10^-7 M after 48 hrs by sulforhodamine B assay; settings: KM12, 48 h, read-out: Activity
HL-60(TB) [20] = assay: Growth inhibition of human HL-60(TB) cells assessed as cell growth at 10^-7 M after 48 hrs by sulforhodamine B assay; settings: HL-60, 48 h, read-out: Activity
SK-MEL-2 = assay: Growth inhibition of human SK-MEL-2 cells assessed as cell growth at 10^-4 M after 48 hrs by sulforhodamine B assay; settings: SK-MEL-2, 48 h, read-out: Activity
OVCAR-5 [21] = assay: Growth inhibition of human OVCAR5 cells assessed as cell growth at 10^-6 M after 48 hrs by sulforhodamine B assay; settings: OVCAR-5, 48 h, read-out: Activity
KM12 [22] = assay: Growth inhibition of human KM12 cells assessed as cell growth at 10^-6 M after 48 hrs by sulforhodamine B assay; settings: KM12, 48 h, read-out: Activity

| Structure (SMILES) | growth at 0.01 µM (SK-MEL-5) | growth at 0.01 µM (ACHN [1]) | growth at 100 µM (NCI-H226 [2]) | growth at 1 µM (UACC-257) | growth at 1 µM (HT-29) | growth at 10 µM (NCI-H522) | growth at 0.1 µM (786-0 [3]) | growth at 0.01 µM (PC-3 [4]) | growth at 0.01 µM (MOLT-4) | growth at 0.1 µM (MDA-MB-435 [5]) | growth at 100 µM (M14) | growth at 0.01 µM (BT-549) | growth at 0.01 µM (SW-620) | growth at 0.01 µM (Malme-3M) | growth at 10 µM (CAKI-1) | growth at 10 µM (HOP-62 [6]) | growth at 10 µM (OVCAR-5 [7]) | growth at 0.01 µM (786-0 [8]) | growth at 100 µM (LOX IMVI) | growth at 0.01 µM (RXF 393) | also measured |
| --- | --- | --- | --- | --- | --- | --- | --- | --- | --- | --- | --- | --- | --- | --- | --- | --- | --- | --- | --- | --- | --- |
| COc1cc(-c2nn(-c3cccc(NC(=O)c4ccccc4)c3)cc2-c2ccncc2)ccc1Cl | 97% | 101% | 24% | 47% | 17% | 4% | 92% | 94% | 102% | 80% | -41% | 92% | 96% | 98% | 14% | 48% | 59% | 93% | 7% | 100% | growth at 100 µM (SF-268 [9]): 14%; growth at 0.1 µM (ACHN [10]): 95%; growth at 10 µM (MDA-MB-435 [11]): -48%; growth at 0.01 µM (HOP-62 [12]): 94%; growth at 0.1 µM (MDA-MB-468): 89%; growth at 10 µM (SF-268 [13]): 24%; growth at 0.1 µM (PC-3 [14]): 86%; growth at 10 µM (UO-31): 18%; growth at 100 µM [15]: -13%; growth at 10 µM (HL-60(TB) [16]): 13%; growth at 0.01 µM (NCI-H322M): 98%; growth at 0.1 µM [17]: 97%; growth at 1 µM (NCI-H226 [18]): 64%; growth at 0.1 µM (KM12 [19]): 91%; growth at 0.1 µM (HL-60(TB) [20]): 100%; growth at 100 µM (SK-MEL-2): -30%; growth at 1 µM (OVCAR-5 [21]): 87%; growth at 1 µM (KM12 [22]): 36% |
| COc1cc(-c2nn(-c3cccc(NC(=O)c4ccc(N5CCOCC5)c(C(F)(F)F)c4)c3)cc2-c2ccncc2)ccc1Cl | 95% | 102% | 16% | 49% | 9% | -14% | 100% | 92% | 109% | -4% | -30% | 99% | 99% | 103% | -2% | 31% | 16% | 98% | -34% | 118% | growth at 100 µM (SF-268 [9]): 10%; growth at 0.1 µM (ACHN [10]): 83%; growth at 10 µM (MDA-MB-435 [11]): -36%; growth at 0.01 µM (HOP-62 [12]): 96%; growth at 0.1 µM (MDA-MB-468): 71%; growth at 10 µM (SF-268 [13]): 12%; growth at 0.1 µM (PC-3 [14]): 73%; growth at 10 µM (UO-31): -5%; growth at 100 µM [15]: -46%; growth at 10 µM (HL-60(TB) [16]): 2%; growth at 0.01 µM (NCI-H322M): 103%; growth at 0.1 µM [17]: 81%; growth at 1 µM (NCI-H226 [18]): 28%; growth at 0.1 µM (KM12 [19]): 64%; growth at 0.1 µM (HL-60(TB) [20]): 73%; growth at 100 µM (SK-MEL-2): -34%; growth at 1 µM (OVCAR-5 [21]): 57%; growth at 1 µM (KM12 [22]): 28% |

Source: ChEMBL document CHEMBL2440076, “New triarylpyrazoles as broad-spectrum anticancer agents: design, synthesis, and biological evaluation” (Eur J Med Chem, 2013)
